Experimental data taken from patent US8858962B2, “Adjuvant or pharmaceutical preparation for transdermal or transmucosal administration” (priority 2005, dated 2014).

Tests used:
MHC Class II molecules = experiment: Intensity of expression of MHC Class II molecules by lymph cells after transdermal adjuvant (flow cytometry, FIG. 1); format: in vivo, BALB/c mice; details: for lymph cell count: 50 uL of acetone solution (50%) on shaved abdomen, lymph node removed 5 days later
Protocol: On the other hand, for a group for which an antigen hapten was used in combination, 50 uL of a 1:1 mixture of an FITC solution (5 mg/mL in acetone) and a solution of the adjuvant was transdermally administered to the abdomen. 5 days later, lymph node (cervix, groin) was removed, and the intensity of expression of MHC Class II molecules by lymph cells was analyzed by flow cytometry (FIG. 1).

BALB/c mice = experiment: Skin irritation score, intradermal vs transdermal administration; format: in vivo
[1] = system: OVA-specific IgG antibody; experiment: OVA-specific IgG antibody titer by ELISA; OVA intradermal plus adjuvant transdermal; format: in vivo, BALB/c mice; details: for Antibody titer (×10^4): OVA 10 ug/head intradermal, 25 uL adjuvant transdermal, dosing at 0, 2, 4 W, 5 W data; for antigen IgG immune response: intradermal ovalbumin plus transdermal adjuvant on intact skin
Protocol: OVA was dissolved in physiological saline and adjusted to give 10 ug/head, and for an OVA-only group 25 uL of the OVA aqueous solution was intradermally administered. For groups in which there was combined use with various types of adjuvant, immediately after the OVA solution was intradermally administered, 25 uL of the adjuvant solution was transdermally administered (coated) via the skin surface of the abdomen. Administration was carried out at 0, 2, and 4 W, blood was collected at 2, 4, and 5 W, and the OVA-specific IgG antibody titer after 2, 4, and 5 W was measured by ELISA.

[2] = system: OVA-specific IgG antibody; experiment: OVA-specific IgG antibody titer; microneedles coated with antigen emulsion (FIG. 5); format: in vivo, BALB/c mice; details: OVA 0.1 mg/patch; microneedles coated with emulsion 1:1:0.01 (Tween 80); punctured 2 hours
Protocol: Furthermore, for microneedle groups (OVA+lauryl alcohol or oleyl alcohol) microneedle needles were coated with an emulsion [antigen solution:olive oil or lauryl alcohol:surfactant (Tween 80)=1:1:0.01], and puncturing was carried out for 2 hours. Administering was carried out at 0, 2, and 4 W, blood was collected at 2, 4, and 5 W, and the OVA-specific IgG antibody titer was measured by ELISA.

[3] = system: OVA-specific IgG antibody; experiment: OVA-specific IgG antibody titer; OVA/LA emulsion with microneedle, skin abrasion or iontophoresis (FIG. 2); format: in vivo, BALB/c mice; details: OVA 100 ug/head; OVA solution:LA:Tween 20 1:1:0.01; IP, MN, Skin Prep modes; 4 W data
Protocol: OVA (ovalbumin antigen) was adjusted to give 100 ug/head, for an OVA-only group an OVA aqueous solution was applied, and for a group in which lauryl alcohol (LA) was used in combination, an emulsified solution formed by mixing the OVA solution, LA and Tween 20 (emulsifier) at 1:1:0.01 was used. For the microneedle group, the pre-shaved abdomen skin was punctured with 1 cm^2 of microneedles (needle length about 200 um, 400 needles/cm^2), and immediately after this 50 uL of the above-mentioned emulsion solution was applied. For the skin abrasion treatment group, instead of the microneedles, the skin was abraded 5 times with 3M RED Dot™ 2236 and 50 uL of the emulsion solution was applied. For the iontophoresis group, after the shaven abdomen skin was coated with 50 uL of the emulsion solution, an iontophoresis preparation (nonwoven cloth preparation: Ag, Ag/AgCl 1 cm^2) formed by impregnating a nonwoven cloth with physiological saline was affixed to the coated site, and direct current (0.4 mA/patch) was applied for 1 hour. Administration was carried out at 0, 2, and 4 W, blood was collected at 2, 4, and 5 W, and the OVA-specific IgG antibody titer was measured by ELISA.

[4] = system: OVA-specific IgG antibody; experiment: OVA-specific IgG antibody titer; antigen-coated microneedles with LA applied in advance (FIG. 3); format: in vivo, hairless rats; details: OVA 2 mg/patch on coated microneedles, punctured 2 hours
Protocol: OVA was adjusted to give 2 mg/patch, a needle portion of microneedles was coated with the antigen and 5% polyvinyl alcohol liquid, and for a microneedle group the abdomen of 7 to 8 W male hairless rats was punctured for 2 hours with physiological saline dropped onto the skin side. For a microneedle+lauryl alcohol group, LA was applied in advance, physiological saline was dropped onto the skin side, and it was punctured for 2 hours with microneedle needles coated with the antigen and 5% polyvinyl alcohol liquid. Administration was carried out at 0, 2, and 4 W, blood was collected at 2, 4, and 5 W, and the OVA-specific IgG antibody titer was measured by ELISA.

[5] = system: OVA-specific IgG antibody; experiment: OVA-specific IgG antibody titer; microneedles coated with antigen emulsion (FIG. 4); format: in vivo, hairless rats; details: OVA 2 mg/patch; microneedles coated with emulsion antigen:oil or alcohol:Tween 80 1:1:0.01; punctured 2 hours
Protocol: OVA was adjusted to give 2 mg/patch, and for a microneedle group (OVA+5% polyvinyl alcohol), the abdomen of 7 to 8 W male hairless rats was punctured for 2 hours with a needle portion of microneedles coated with antigen and 5% polyvinyl alcohol liquid [mixed at antigen solution:10% polyvinyl alcohol=1:1]. Furthermore, for microneedle groups (OVA+olive oil) or (OVA+lauryl alcohol), microneedle needles were coated with an emulsion [antigen solution:olive oil or lauryl alcohol:surfactant (Tween 80)=1:1:0.01], and puncturing was carried out for 2 hours. Administration was carried out at 0, 2, and 4 W, blood was collected at 2, 4, and 5 W, and the OVA-specific IgG antibody titer was measured by ELISA.

OVA = experiment: Effect of LA adjuvant in administration via oral mucous membrane, antibody titer (FIG. 7); format: in vivo, BALB/c mice; details: OVA 2500 ug/head; antigen solution:LA:Tween 80 8:2:0.05 and 5:5:0.05; blood after 2 weeks

| Compound | lymph cell count (MHC Class II molecules) | skin irritation on transdermal administration (BALB/c mice) | Antibody titer (×10^4) [1] | other results |
| --- | --- | --- | --- | --- |
| sorbitan monooleate | remarkable increase | – | – | – |
| CCCCCCCCCCC(CO)CCCCCCCC (centres unmarked) [Octyldodecanol, octyldodecanol] | – | did not cause skin irritation | 0.6 ×10^4 | – |
| CC(C)CCCCCCCCCCCCCCCO [Isostearyl alcohol, isostearyl alcohol] | remarkable increase | did not cause skin irritation | 1.3 ×10^4 | – |
| CCCCCCCC/C=C\CCCCCCCCO [Oleyl alcohol, oleyl alcohol] | remarkable increase | did not cause skin irritation | 2.1 ×10^4 | antigen IgG immune response [1]: highest immune response; OVA-specific IgG antibody titer [2]: increased remarkably |
| CCCCCCCC/C=C\CCCCCCCC(=O)O [oleic acid] | remarkable increase | – | – | – |
| polyethylene glycol monolaurate | – | did not cause skin irritation | 0.9 ×10^4 | – |
| sorbitan monolaurate | remarkable increase | did not cause skin irritation | – | – |
| CCCCCCCCCCCCO [Lauryl alcohol, lauryl alcohol] | remarkable increase | did not cause skin irritation | 2.1 ×10^4 | adjuvant effect in transdermal administration (MHC Class II molecules; comparison among adjuvants): most outstanding adjuvant effect; antigen IgG immune response [1]: highest immune response; OVA-specific IgG antibody titer [3]: significant increase; OVA-specific IgG antibody titer [4]: increased,remarkably; OVA-specific IgG antibody titer [5]: increased remarkably; OVA-specific IgG antibody titer [2]: increased remarkably; antibody titer, oral mucous membrane administration (OVA): increased in response to the LA concentration |
